Assay results from patent publication US20100222396A1 (Novartis AG, priority 2009, published 2010).

Key:
[1] = target: T1, human orexin 2 receptor (hOx2R) (Homo sapiens, UniProt O43614); test: Calcium accumulation in cells (FLIPR), antagonism of orexin A, hOx2R; assay type: cell-based; conditions: for Kd: cells expressing human orexin 2 receptor, IC50 vs orexin A converted by Cheng and Prusoff correction
T1 construct: expressed in transfected cells
T1 sequence (O43614 1-444): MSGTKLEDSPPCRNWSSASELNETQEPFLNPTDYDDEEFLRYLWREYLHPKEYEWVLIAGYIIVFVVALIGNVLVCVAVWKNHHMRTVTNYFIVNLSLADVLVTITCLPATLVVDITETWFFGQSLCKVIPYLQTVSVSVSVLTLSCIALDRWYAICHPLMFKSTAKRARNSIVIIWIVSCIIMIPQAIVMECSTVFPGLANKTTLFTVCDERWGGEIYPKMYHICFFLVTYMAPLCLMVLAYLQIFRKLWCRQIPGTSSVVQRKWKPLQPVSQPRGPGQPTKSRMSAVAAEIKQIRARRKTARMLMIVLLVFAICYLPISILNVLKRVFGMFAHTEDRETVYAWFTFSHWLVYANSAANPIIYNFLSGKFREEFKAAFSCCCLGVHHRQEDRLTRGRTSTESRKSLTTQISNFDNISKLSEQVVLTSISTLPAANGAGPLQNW
Description: (§1) Cells expressing human orexin 1 or human orexin 2 receptors, were seeded at 8,000 cells/well in 384 well black-walled clear bottom, poly-D-lysine coated plates. After 24 h, the medium was removed and cells were washed once with phosphate buffered saline and serum-deprived overnight in assay buffer (130 mM NaCl, 5.4 mM KCl, 1.8 mM CaCl2, 0.8 mM MgSO4, 0.9 mM NaH2PO4, 25 mM glucose, 20 mM HEPES, pH 7.4) containing bovine serum albumin (1% w/v).
(§2) On the day of the experiment, the cells seeded in black plates were treated with assay buffer containing the Ca^2+ sensitive fluorescent dye Fluo-4-AM (2 μM), and probenecid (0.1 mM). After 1 h plates were washed twice with, and resuspended in, assay buffer containing probenecid (0.1 mM) using a multi plate washer. The plates were placed into a FLIPR II (Fluorometric Imaging Plate Reader, Molecular Devices, Sunnyvale, Calif., USA) and baseline fluorescence (fluorescence light units, FLU) was measured (5 measurements, 2 S each; laser excitation 488 nm at 0.6-1 W, CCD camera exposure 0.4 s) before addition of buffer alone (basal) or containing test compounds (either compound of formula I alone, agonist alone or agonist in the presence of various concentrations of compounds of formula I). Fluorescence measurements were then continued every 1 S for 120 S followed by every 4 S for 240 S.
(§3) The measurements were typically made in two sequences:
(§4) Compounds of formula I were tested usually in a concentration range from 10^−9 M to 10^−5 M.
(§5) In the second round, performed one hour later (to allow for equilibration), Orexin A was tested either in the absence (calibration curves, Orexin A agonist controls) or in the presence of compounds of formula I to determine antagonism.

[2] = target: T2, human orexin 1 receptor (hOx1R) (Homo sapiens, UniProt O43613); test: Radioligand binding assay ([125I]orexin A competition), hOx1R; conditions: CHO or HEK cell membranes, 1 h room temperature
T2 construct: expressed in transfected cells
T2 sequence (O43613 1-425): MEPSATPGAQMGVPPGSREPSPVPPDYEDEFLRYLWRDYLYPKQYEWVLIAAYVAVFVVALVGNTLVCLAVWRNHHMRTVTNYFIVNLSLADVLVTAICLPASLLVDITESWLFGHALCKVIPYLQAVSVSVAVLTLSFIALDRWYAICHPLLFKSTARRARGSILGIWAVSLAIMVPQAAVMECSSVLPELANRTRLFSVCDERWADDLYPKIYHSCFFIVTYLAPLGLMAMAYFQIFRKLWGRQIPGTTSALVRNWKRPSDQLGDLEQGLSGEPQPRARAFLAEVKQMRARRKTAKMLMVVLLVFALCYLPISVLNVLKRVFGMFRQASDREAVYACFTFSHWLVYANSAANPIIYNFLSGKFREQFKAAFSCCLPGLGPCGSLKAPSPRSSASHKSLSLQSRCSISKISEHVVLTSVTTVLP
Description: (§6) For crude cell membrane preparations, cells (CHO, Chinese hamster ovary or HEK, human embryonic kidney) expressing human orexin 1 or human orexin 2 receptors, were washed with HEPES (10 mM, pH 7.5), scraped off the culture plates with the same buffer, and centrifuged at 4° C. for 5 min at 2500×g. The cell pellet was either stored at −80° C. or used directly. Before the experiments, cell membranes were re-suspended in binding assay buffer (10 mM HEPES, 0.5% (w/v) bovine serum albumin, pH 7.5) by homogenisation with a Polytron homogeniser at 50 Hz for 20 s. Cell membranes were also used as made available by commercial providers.
(§7) In initial saturation experiments (to calculate Bmax), cell homogenates (150 μl) were incubated with 25-300 pM of the radioligand ([^125I]orexin A, 50 μl), 8 concentrations in triplicates in the presence or absence Orexin A (1 μM, 50 μl) to define non specific binding. Bound radioactivity was measured, and data were analysed with the program XLFIT or Graphpad Prism. Protein concentration was determined according to the Bradford/BioRad Protein Assay Kit.
(§8) In competition experiments, cell homogenates (150 μl) were incubated in assay buffer (10 mM HEPES, pH 7.5, 0.5% (w/v) bovine serum albumin, 5 mM MgCl2, […], and tween 0.05%) for 1 h at room temperature with about […] of the radioligand ([^125I]orexin A, 2100 Ci/mmole, 50 μl), and with various concentrations of compounds of the invention (50 μl) in triplicates; non-specific binding was determined in the presence of Orexin A (1 μM). Reactions were terminated by vacuum filtration, 3 washes of ice cold wash buffer (Tris-HCl pH 7.4/10 mM, with NaCl 154 mM). Competition data is expressed in Table 1 as Kd [μM].

[3] = target: T2, human orexin 1 receptor (hOx1R); test: Calcium accumulation in cells (FLIPR), antagonism of orexin A, hOx1R; assay type: cell-based; conditions: for Kd: cells expressing human orexin 1 receptor, IC50 vs orexin A converted by Cheng and Prusoff correction; for inhibition at 10 µM: measured at a concentration of 10 μM of compound (cells marked ^a)
Description: as §1, §2, §3, §4, §5

[4] = target: T1, human orexin 2 receptor (hOx2R); test: Radioligand binding assay ([125I]orexin A competition), hOx2R; conditions: CHO or HEK cell membranes, 1 h room temperature
Description: as §6, §7, §8

Structure (SMILES) | Kd [1] | Kd [2] | Kd [3] | Kd [4] | inhibition at 10 µM [3] | inhibition at 10 µM ([1]; measured at a concentration of 10 μM of compound (cells marked ^a))
COc1ccc(C(=O)N(C)[C@H](CCNC(=O)c2ccccn2)Cc2ccccc2)cc1 [Example 42, Pyridine-2-carboxylic acid {(S)-3-[(4-methoxy-benzoyl)-methyl-amino]-4-phenyl-butyl}-amide] | 826 nM | 1730 nM | 909 nM | 688 nM |  | 
CN(C(=O)c1cccc(Br)c1)[C@H](CCNC(=O)c1nc2ccccc2n1C)Cc1ccccc1 [Example 102, 1-Methyl-1H-benzoimidazole-2-carboxylic acid {(S)-3-[(3-bromo-benzoyl)-methyl-amino]-4-phenyl-butyl}-amide] | 1 nM | 28 nM | 18 nM | 2 nM |  | 
COc1cccc(C(=O)N(C)[C@H](CCNC(=O)c2cccn2C)Cc2ccccc2)c1 [Example 103, 1-Methyl-1H-pyrrole-2-carboxylic acid {(S)-3-[(3-methoxy-benzoyl)-methyl-amino]-4-phenyl-butyl}-amide] | 8 nM | 624 nM | 1400 nM | 19 nM |  | 
Cc1cc(F)cc(C(=O)N(C)[C@H](CCNC(=O)c2cccn2C)Cc2ccccc2)c1 [Example 124, 1-Methyl-1H-pyrrole-2-carboxylic acid {(S)-3-[(3-fluoro-5-methyl-benzoyl)-methyl-amino]-4-phenyl-butyl}-amide] | 13 nM | 599 nM | 710 nM | 39 nM |  | 
CN(C(=O)c1cc(C(F)(F)F)cc(C(F)(F)F)c1)[C@H](CCNC(=O)c1nc2ccccc2n1C)Cc1ccccc1 [Example 12, 1-Methyl-1H-benzoimidazole-2-carboxylic acid {(S)-3-[(3,5-bis-trifluoromethyl-benzoyl)-methyl-amino]-4-phenyl-butyl}-amide] | 40 nM | 1070 nM | 437 nM | 98 nM |  | 
Cc1cccc(C(=O)N(C)[C@H](CCNC(=O)c2ccccn2)Cc2ccccc2)c1 [Example 96, Pyridine-2-carboxylic acid {(S)-3-[methyl-(3-methyl-benzoyl)-amino]-4-phenyl-butyl}-amide] | 74 nM | 247 nM | 474 nM | 133 nM |  | 
Cc1cc(C)cc(C(=O)N(C)[C@H](CCNC(=O)c2ccccn2)Cc2ccccc2)c1 [Example 97, Pyridine-2-carboxylic acid {(S)-3-[(3,5-dimethyl-benzoyl)-methyl-amino]-4-phenyl-butyl}-amide] | 39 nM | 46 nM | 185 nM | 30 nM |  | 
Cc1nc2sccn2c1C(=O)NCC[C@H](Cc1ccccc1)N(C)C(=O)c1ccccc1 [Example 33, 6-Methyl-imidazo[2,1-b]thiazole-5-carboxylic acid [(S)-3-(benzoyl-methyl-amino)-4-phenyl-butyl]-amide] | 76 nM | 5730 nM | 1960 nM | 450 nM |  | 
CN(C(=O)c1cccc2c1OCCO2)[C@H](CCNC(=O)c1ccccn1)Cc1ccccc1 [Example 54, Pyridine-2-carboxylic acid {(S)-3-[(2,3-dihydro-benzo[1,4]dioxine-5-carbonyl)-methyl-amino]-4-phenyl-butyl}-amide] | 958 nM | > 10000 nM |  | 1730 nM | 9% | 
CN(C(=O)c1ccc2ccccc2c1)[C@H](CCNC(=O)c1ccccn1)Cc1ccccc1 [Example 21, Pyridine-2-carboxylic acid {(S)-3-[methyl-(naphthalene-2-carbonyl)-amino]-4-phenyl-butyl}-amide] | 174 nM | 62 nM | 70 nM | 203 nM |  | 
CN(C(=O)c1ccc2occc2c1)[C@H](CCNC(=O)c1ccccn1)Cc1ccccc1 [Example 20, Pyridine-2-carboxylic acid {(8)-3-[(benzofuran-5-carbonyl)-methyl-amino]-4-phenyl-butyl}-amide] | 123 nM | 163 nM | 413 nM | 168 nM |  | 
Cc1cc(C)cc(C(=O)N(C)[C@H](CCNC(=O)c2cccn2C)Cc2ccccc2)c1 [Example 125, 1-Methyl-1H-pyrrole-2-carboxylic acid {(S)-3-[(3,5-dimethyl-benzoyl)-methyl-amino]-4-phenyl-butyl}-amide] | 2 nM | 176 nM | 230 nM | 7 nM |  | 
CN(C(=O)c1ccc2c(c1)OC(F)(F)O2)[C@H](CCNC(=O)c1cccn1C)Cc1ccccc1 [Example 107, 1-Methyl-1H-pyrrole-2-carboxylic acid {(S)-3-[(2,2-difluoro-benzo[1,3]dioxole-5-carbonyl)-methyl-amino]-4-phenyl-butyl}-amide] | 54 nM | 2510 nM | 1070 nM | 162 nM |  | 
CCCOc1cccc(C(=O)N(C)[C@H](CCNC(=O)c2cccn2C)Cc2ccccc2)c1 [Example 126] | 56 nM | 2480 nM | 2100 nM | 87 nM |  | 
CCN(C(=O)c1cccc2c1OCO2)[C@H](CCNC(=O)c1ccccn1)Cc1ccccc1 [Example 45, Pyridine-2-carboxylic acid {(S)-3-[(benzo[1,3]dioxole-4-carbonyl)-ethyl-amino]-4-phenyl-butyl}-amide] | 424 nM | 5330 nM | 2710 nM | 748 nM |  | 
CN(C(=O)c1ccccc1)[C@H](CCNC(=O)c1ccccn1)Cc1ccc(F)cc1 [Example 66, Pyridine-2-carboxylic acid [(S)-3-(benzoyl-methyl-amino)-4-(4-fluoro-phenyl)-butyl]-amide] |  | > 10000 nM |  | 7120 nM | 0% | 33%
CN(C(=O)c1ccccc1)[C@H](CCNC(=O)c1cccc2c1OCC2)Cc1ccccc1 [Example 67, 2,3-Dihydro-benzofuran-7-carboxylic acid [(S)-3-(benzoyl-methyl-amino)-4-phenyl-butyl]-amide] | 180 nM | 1080 nM |  | 114 nM | 33% | 
